# In PMC9196953 (Drug development research, 1999):
# Read-outs that look alike come from different tables or passages of the source.
# Assays:
# human A2A receptors = biological target: T1, human A2A receptors (Homo sapiens, UniProt P29274); assay: Binding at recombinant human A2A receptors expressed in HEK-293 cells vs [125I]ZM241385; conditions: recombinant human A2A in HEK-293 cells, read-out: Ki A2A (h) (converted)
# T1 construct: expressed in transfected cells; host or cells: HEK-293
# Description: (§1) All nonradioactive compounds were initially dissolved in DMSO and diluted with buffer to the final concentration, where the amount of DMSO never exceeded 2%. Incubations were terminated by rapid filtration over Whatman GF/B filters using a Brandell cell harvester. The tubes were rinsed three times with 3 mL buffer each.
# (§2) At least six different concentrations of competitor, spanning 3 orders of magnitude adjusted appropriately for the IC50 value of each compound, were used. IC50 values, calculated with the nonlinear regression method implemented in Graph-Pad Prism (San Diego, CA) were converted to apparent Ki values as described by [Linden [1982]]. Hill coefficients of the tested compounds were in the range of 0.8–1.1.
# (§3) At A2B receptors, two radioligand binding assays (Table 1) were used. Ki values of xanthine derivatives were determined in displacement of binding of the non-selective radioligands […], 8 (4-(2-[7-amino-2-{furyl}{1,2,4}triazolo{2,3-a}{1,3,5}tr nzyl)-8-phenyloxyacetate-1-propyl-xanthine), at human A2B receptors expressed in HEK-293 cell membranes [[Linden and Jacobson, 1998]]. In order to evaluate selectivity, selected derivatives were subjected to standard binding assays at A1, A2A, and A3 receptors. The initial screening utilized rat brain A1/A2A receptors (with radioligands [^3H]R-PIA and [^3H]CGS-21680), and selected compounds were examined at the recombinant human subtypes (Table 1), using [^3H]CPX ([^3H]8-cyclopentyl-1,3-dipropylxanthine) and ^125I-ZM 241385, ^125I-4-(2-[7-amino-2-[2-furyl][1,2,4]triazolo[2,3-a][1,3,5]triazin-5-yl-amino]ethyl)phenol) [[Palmer et al., 1996]].
# human A2B receptors [1] = biological target: T2, human A2B receptors (Homo sapiens, UniProt P29275); assay: Binding at human A2B receptors expressed in HEK-293 cells vs [3H]ZM241385; conditions: for rA1/hA2B: ratio of Ki rat A1 to Ki human A2B
# T2 construct: expressed in transfected cells; host or cells: HEK-293
# T2 sequence (P29275 1-332): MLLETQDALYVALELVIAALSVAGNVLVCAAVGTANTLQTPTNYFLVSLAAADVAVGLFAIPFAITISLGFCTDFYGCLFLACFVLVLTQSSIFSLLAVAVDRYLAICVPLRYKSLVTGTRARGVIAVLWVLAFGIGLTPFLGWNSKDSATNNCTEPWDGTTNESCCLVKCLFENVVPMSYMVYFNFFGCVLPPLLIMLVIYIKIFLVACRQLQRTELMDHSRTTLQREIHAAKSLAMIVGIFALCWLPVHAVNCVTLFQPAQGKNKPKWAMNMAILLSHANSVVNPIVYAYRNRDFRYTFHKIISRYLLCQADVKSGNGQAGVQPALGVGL
# Description: The plasmid was amplified in competent JM109 cells and plasmid DNA isolated using Wizard Megaprep columns (Promega Corp., Madison, WI).
# Colonies were selected by growth of cells in 0.6 mg/mL G418. Transfected cells were maintained in DMEM supplemented with Hams F12 nutrient mixture (1/1), 10% newborn calf serum, 2 mM glutamine, and containing 50 IU/mL penicillin, 50 μg/mL streptomycin, and 0.2 mg/mL Geneticin (G418, Boehringer Mannheim, Indianapolis, IN).
# Confluent monolayers of HEK-A2B cells were washed with PBS followed by ice-cold Buffer A (10 mM HEPES, 10 mM EDTA, pH 7.4) with protease inhibitors ([…] benzamidine, […], and […] of each aprotinin, pepstatin, and leupeptin). The cells were homogenized in a Polytron (Brinkmann) for 20 sec, centrifuged at 30,000g, and the pellets washed twice with buffer HE (10 mM HEPES, 1 mM EDTA, pH 7.4 with protease inhibitors). The final pellet was resuspended in buffer HE, supplemented with 10% sucrose and frozen in aliquots at −80°C. For binding assays, membranes were thawed and diluted 5–10-fold with HE to a final protein concentration of approximately 1 mg/mL. […] After incubating for 20 min at room temperature, 50 mL of 10 mg/mL Na-metabisulfite in water was added the quench the reaction. The reaction products were applied to a C18 HPLC column using 4 mM phosphate, pH 6.0/methanol. […] The incubation time was 3 h at 21°C. […] Membranes were filtered on Whatman GF/C filters using a Brandell cell harvester (Gaithersburg, MD) and washed three times over 15–20 sec with ice-cold buffer (10 mM Tris, 1 mM MgCl2, pH 7.4). […] Data from replicate experiments are tabulated as means ± SEM.
# At A2B receptors, two radioligand binding assays (Table 1) were used. […] In order to evaluate selectivity, selected derivatives were subjected to standard binding assays at A1, A2A, and A3 receptors.
# human A3 receptors = biological target: T3, human A3 receptors (Homo sapiens, UniProt P0DMS8); assay: Displacement of [125I]AB-MECA binding at human A3 receptors expressed in HEK cells; conditions: read-out: Ki hA3
# T3 construct: expressed in transfected cells; host or cells: HEK-293
# T3 sequence (P0DMS8 1-318): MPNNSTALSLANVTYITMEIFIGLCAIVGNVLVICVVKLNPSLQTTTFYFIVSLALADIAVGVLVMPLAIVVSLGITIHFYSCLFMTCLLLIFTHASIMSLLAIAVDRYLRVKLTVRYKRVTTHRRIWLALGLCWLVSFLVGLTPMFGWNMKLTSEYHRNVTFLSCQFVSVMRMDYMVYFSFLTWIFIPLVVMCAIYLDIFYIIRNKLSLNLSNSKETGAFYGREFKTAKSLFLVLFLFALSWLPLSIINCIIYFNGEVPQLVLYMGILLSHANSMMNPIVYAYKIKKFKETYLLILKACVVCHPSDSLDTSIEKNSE
# Description: as §3
# rat A1 receptors = biological target: T4, rat A1 receptors (Rattus norvegicus, UniProt P25099); assay: Displacement of [3H]R-PIA binding to A1 receptors in rat brain membranes; conditions: read-out: Ki rA1
# T4 construct: to A1 receptors from rat cerebral cortical membranes; from tissue; host or cells: rat cerebral cortical membranes
# T4 sequence (P25099 1-326): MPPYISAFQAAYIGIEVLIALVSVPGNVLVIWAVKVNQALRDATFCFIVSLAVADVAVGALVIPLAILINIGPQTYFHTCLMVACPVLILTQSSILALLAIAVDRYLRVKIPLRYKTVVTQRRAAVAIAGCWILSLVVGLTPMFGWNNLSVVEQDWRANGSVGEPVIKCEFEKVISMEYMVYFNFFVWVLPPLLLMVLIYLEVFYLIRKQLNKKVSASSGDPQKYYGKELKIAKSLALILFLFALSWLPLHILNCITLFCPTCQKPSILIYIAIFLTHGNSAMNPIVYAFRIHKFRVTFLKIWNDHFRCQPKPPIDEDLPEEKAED
# Description: as §1, §2, §3
# rat A2A receptors = biological target: T5, rat A2A receptors (Rattus norvegicus, UniProt P30543); assay: Displacement of [3H]CGS 21680 binding to A2A receptors in rat striatal membranes; conditions: read-out: Ki rA2A
# T5 construct: to A2A receptors from rat striatal membranes; from tissue; host or cells: rat striatal membranes
# T5 sequence (P30543 whole entry): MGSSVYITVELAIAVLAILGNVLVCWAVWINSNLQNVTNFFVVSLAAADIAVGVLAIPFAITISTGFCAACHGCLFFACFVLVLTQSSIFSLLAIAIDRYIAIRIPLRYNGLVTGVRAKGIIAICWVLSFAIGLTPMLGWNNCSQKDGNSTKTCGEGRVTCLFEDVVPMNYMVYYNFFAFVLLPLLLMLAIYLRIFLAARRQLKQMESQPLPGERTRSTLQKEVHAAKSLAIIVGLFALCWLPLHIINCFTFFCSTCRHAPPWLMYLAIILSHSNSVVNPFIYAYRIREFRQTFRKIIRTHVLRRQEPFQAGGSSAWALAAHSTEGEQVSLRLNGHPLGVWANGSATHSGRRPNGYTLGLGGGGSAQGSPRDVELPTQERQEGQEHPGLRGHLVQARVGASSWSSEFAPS
# Description: as §1, §2, §3
# human A1 receptors = biological target: T6, human A1 receptors (Homo sapiens, UniProt P30542); assay: Binding at recombinant human A1 receptors expressed in HEK-293 cells vs [3H]CPX; conditions: recombinant human A1 in HEK-293 cells
# T6 construct: expressed in transfected cells; host or cells: HEK-293
# T6 sequence (P30542 1-326): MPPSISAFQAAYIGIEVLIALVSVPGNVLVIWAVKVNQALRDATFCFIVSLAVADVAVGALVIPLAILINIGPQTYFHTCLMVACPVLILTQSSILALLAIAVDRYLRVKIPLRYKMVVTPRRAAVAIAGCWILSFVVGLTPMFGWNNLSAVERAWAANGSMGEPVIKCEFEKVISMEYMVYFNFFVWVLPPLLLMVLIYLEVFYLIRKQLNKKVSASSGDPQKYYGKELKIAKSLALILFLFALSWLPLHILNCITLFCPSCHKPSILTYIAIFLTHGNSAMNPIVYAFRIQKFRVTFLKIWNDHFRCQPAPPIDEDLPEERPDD
# Description: as §1, §2, §3
# A2B receptor = test system: A2B receptor; design: method as in Brackett and Daly, 1994; conditions: ref Brackett and Daly, 1994; cited from earlier work
# human A2B receptors [2] = biological target: T2, human A2B receptors; conditions: ref Jacobson et al., 1999, cited from earlier work
# [3] = HEK-293 cells, vs [3H]ZM241385, read-out: Ki hA2B
# [4] = rounded values given in text, read-out: Ki at human A2B receptors
# T1 sequence (P29274 whole entry): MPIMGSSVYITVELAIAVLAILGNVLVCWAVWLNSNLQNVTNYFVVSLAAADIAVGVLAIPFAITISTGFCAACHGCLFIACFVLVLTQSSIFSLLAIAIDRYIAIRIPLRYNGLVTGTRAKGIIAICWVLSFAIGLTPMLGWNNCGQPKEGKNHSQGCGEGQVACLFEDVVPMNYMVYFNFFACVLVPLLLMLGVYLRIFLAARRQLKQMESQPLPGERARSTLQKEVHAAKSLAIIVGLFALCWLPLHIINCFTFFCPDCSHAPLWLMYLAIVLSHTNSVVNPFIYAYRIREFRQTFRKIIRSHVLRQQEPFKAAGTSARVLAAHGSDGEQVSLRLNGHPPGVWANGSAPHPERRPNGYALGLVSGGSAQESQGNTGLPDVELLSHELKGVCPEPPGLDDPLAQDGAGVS
Compound,Ki (human A2A receptors),Ki (human A2B receptors [1]; [3]),rA1/hA2B (human A2B receptors [1]),Ki (human A3 receptors),Ki (rat A1 receptors),Ki (rat A2A receptors),Ki (human A1 receptors),Ki (human A2B receptors [1]; [4]),selectivity as antagonist at the A2B receptor vs. other subtypes (A2B receptor),"selectivity for human A2B receptors vs. A1, A2A, and A3 adenosine receptors (human A2B receptors [2])","enhancement of affinity at A2B receptors (human A2B receptors [2]; relative to theophylline, 2)"
"CCCn1c(=O)c2[nH]c(-c3ccc(OCC(=O)NNC(=O)CNC(=O)CNC(=O)OCc4ccccc4)cc3)nc2n(CCC)c1=O [Compound 27, 8-[4-[(Carboxymethyl)oxy]phenyl]-1,3-di-(n-propyl)xanthine N-(N-Benzyloxycarbonyl-glycylglycinyl)hydrazide]",830 nM,10.8 ± 5 nM,3.3,323 ± 47 nM,36 ± 6.6 nM,609 ± 95 nM,200 nM,11 nM,,,
"CCCn1c(=O)c2[nH]c(-c3ccc(OCC(=O)NN4C(=O)CCC4=O)cc3)nc2n(CCC)c1=O [Compound 10, 8-[4-[(Carboxymethyl)oxy]phenyl]-1,3-di-(n-propyl)xanthine N,N-Succinylhydrazide]",27.2 nM,18.6 ± 6.1 nM,3.0,766 ± 176 nM,55.9 ± 25.1 nM,805 ± 44 nM,75.2 nM,,,,
O=c1nc2[nH]c3ccccc3nc-2c(=O)[nH]1 [Alloxazine],,,,,,,,,approximately one order of magnitude,,
CCCn1c(=O)c2[nH]c(-c3ccc(OCC(=O)ON4C(=O)CCC4=O)cc3)nc2n(CCC)c1=O [Compound 4d],,,,,,,,,,approximately 20 fold,
Cn1c(=O)c2[nH]c(-c3ccccc3)nc2n(C)c1=O [Compound 3],,,,,,,,,,,22 fold
"CCCn1c(=O)c2[nH]c(-c3ccc(OCC(=O)NNC(=O)[C@H](CCSC)NC(=O)OC(C)(C)C)cc3)nc2n(CCC)c1=O [Compound 26, 8-[4-[(Carboxymethyl)oxy]phenyl]-1,3-di-(n-propyl)xanthine N-(N-tert-Butoxycarbonyl-L-methionyl)-hydrazide]",,39.7 ± 13.6 nM,2.8,690 ± 570 nM,113 ± 27 nM,524 ± 285 nM,,40 nM,,,

# Second part, led by results:
Ki (human A2A receptors),Ki (human A2B receptors [1]; [3]),rA1/hA2B (human A2B receptors [1]),Ki (human A3 receptors),Ki (rat A1 receptors),Ki (rat A2A receptors),Ki (human A1 receptors),Compound,Ki (human A2B receptors [1]; [4]),selectivity as antagonist at the A2B receptor vs. other subtypes (A2B receptor),"selectivity for human A2B receptors vs. A1, A2A, and A3 adenosine receptors (human A2B receptors [2])","enhancement of affinity at A2B receptors (human A2B receptors [2]; relative to theophylline, 2)"
178 nM,13 ± 3.5 nM,4.1,726 ± 245 nM,53.5 ± 6.5 nM,440 ± 106 nM,149 nM,CCCn1c(=O)c2[nH]c(-c3ccc(OCC(=O)NN4C(=O)CC[C@H](NC(=O)C(F)(F)F)C4=O)cc3)nc2n(CCC)c1=O [Compound 24b],,,,
301 nM,10 ± 3 nM,3.6,370 ± 190 nM,36.4 ± 6.2 nM,689 ± 477 nM,129 nM,"CCCn1c(=O)c2[nH]c(-c3ccc(OCC(=O)NN4C(=O)C5CC=CCC5C4=O)cc3)nc2n(CCC)c1=O (stereo not drawn) [Compound 18b, 8-[4-[(Carboxymethyl)oxy]phenyl]-1,3-di-(n-propyl)xanthine N,N-(cis-1,2,3,6-Tetrahydrophthaloyl)-hydrazide]",,,,
